Results reported in patent US10683525B2, “Method for producing 2-O-glyceryl-alpha-D-glucopyranoside” (Technische Universität Graz, priority 2006, dated 2020).

Test system: mannitol dehydrogenase, MDH
Experiment: Stabilization of proteins during freeze drying
Format: biochemical
Conditions: MDH 0.8 mg/ml, 20-1500 mM αGG in 100 mM Tris/HCl buffer pH 7.0, lyophilized over-night and redissolved; irrespective of the added αGG concentration; 2% without any stabilizer
Protocol: The protein of interest (e.g. mannitol dehydrogenase, MDH) was incubated at a concentration of 0.8 mg/ml in the presence of 0, 20, 50, 100, 500, 1000 or 1500 mM αGG in 100 mM Tris/HCl buffer, pH 7.0. The samples were lyophilized over-night and dissolved in the same buffer again. The specific enzyme activity was determined, using appropriate assays for the corresponding enzyme as described elsewhere (Slatner M. et al., Biochemistry 38: 10489-10498), before and after freeze drying. Without any stabilizer added the enzymatic activity of MDH dropped down to 2% after freeze drying, whereas αGG is able to maintain enzymatic activity up to 48% irrespective of the added αGG concentration.

## OCC(CO)O[C@H]1O[C@H](CO)[C@@H](O)[C@H](O)[C@H]1O [αGG, 2-O-glyceryl-α-D-glucopyranoside]
  enzymatic activity of MDH maintained after freeze drying: up to 48%
